Results taken from PubChem BioAssay (NCI).
Several values for one entry are separate records, joined by “and”; a condition that tells them apart may be missing. Identical values can stand only once.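 Grown in 96-well plates, cells were treated for 48 hours with each compound at five concentrations. Insufficient inhibition: endpoint recorded as highest concentration tested. GI50 = concentration required for 50% inhibition of growth. TGI marks complete inhibition of growth.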

System: MDA-MB-468 breast
Assay: NCI anticancer screen, dose series, 48 h

Row | Compound | GI50 | TGI
1 | CCOC(=O)c1c(NC(=O)c2ccc(C(C)C)cc2)sc2c(CN(C)C)c(O)ccc12 | 1880 nM | 4090 nM
2 | COc1cc(Nc2ccnc(N3CCN(c4ccnc5cc(Cl)ccc45)CC3)n2)cc(OC)c1 | 832 nM | > 84900 nM
3 | COc1ccc(Cl)cc1Nc1nc(C(F)(F)F)ccc1C(=O)NN | 3880 nM | > 85900 nM
4 | C[C@]12CC[C@@H]3c4ccc(O)c([N+](=O)[O-])c4CC[C@H]3[C@@H]1CC[C@@H]2NS(=O)(=O)c1ccc(C(F)(F)F)cc1 | 2180 nM | 6290 nM
5 | CN1CCCN(CCNc2nccc(-c3c(-c4cccc(O)c4)nc4sccn34)n2)S1(=O)=O | 9050 nM and 10700 nM | 24100 nM and 53000 nM
6 | COc1ccc(-c2cc(-c3ccc(Cl)cc3)c(C#N)c(=O)n2CCCCC(=O)Nc2ccccc2N)cc1 | 5680 nM | 67500 nM
7 | Cn1cc(C2=C(c3cn(C)c4ccc(N)cc34)C(=O)NC2=O)c2ccccc21 | 7350 nM | > 25000 nM
8 | CC1(C)N=C(N)N=C(N)N1c1ccc(CCc2ccccc2)c(Cl)c1 | 55.5 nM | 1340 nM
9 | S=C(N/N=C/c1cc(Cl)cc(Cl)c1)NC12CC3CC(CC(C3)C1)C2 | 16800 nM | > 100000 nM
10 | CS(=O)(=O)c1ccc(Cl)c([N+](=O)[O-])c1 | 1600 nM | 3470 nM
11 | Cc1ccc(C(=O)Nc2ccc(CN3CCN(C)CC3)c(C(F)(F)F)c2)cc1C#Cc1cnc(N)c2ccc(F)cc12 | 359 nM | 1190 nM
12 | CC(C)n1c(/C=C/[C@@H](O)C[C@@H](O)CC(=O)O)c(-c2ccc(F)cc2)c2ccccc21 | 5720 nM and 2550 nM | > 100000 nM
13 | COc1cc(-c2csc(NC(=O)c3cc(C(F)(F)F)cc(C(F)(F)F)c3)n2)cc(OC)c1OC | 1640 nM | 7020 nM
14 | Clc1ccc(COC(Cn2ccnc2)c2ccc(Cl)cc2Cl)cc1 (stereo not given) | 2020 nM | 6810 nM
15 | CCNCCCn1c2c(c3cc(OC)c(OC)cc3c1=O)C(=O)c1cc(OC)cnc1-2 | 310 nM | 1440 nM
16 | Cc1cccc(NC(=O)c2sc3nc4c(cc3c2N)CCCC4)c1C | 339 nM | > 100000 nM
17 | CNC(=O)Nc1ccc(-c2nc(N3CCOCC3)nc3c2cnn3C2CCOCC2)cc1 | 151 nM | 936 nM
18 | CCN(c1ccc(CO)c(Cl)c1)C(C)c1ccc(F)cc1 (stereo not given) | 640 nM | 5260 nM

Row | Compound | GI50 | TGI
19 | N/C(=N\OC(=O)c1ccccc1)C(C(=O)NOC(=O)c1ccccc1)C1CCCCC1 (stereo not given) | 13300 nM | 29400 nM
20 | Cc1ccc(C(=O)/C(=C/c2ccc([N+](=O)[O-])cc2)S(=O)Cc2ccccc2)cc1 (stereo not given) | 1710 nM | 4070 nM
21 | N=C(N)c1ccc(-c2ccc(-c3ccc(Cl)cc3Cl)o2)cc1 | 1940 nM | 3680 nM
22 | C#C[C@]1(O)CC[C@H]2[C@@H]3CC=C4c5nc(Nc6ccccn6)sc5CC[C@]4(C)[C@H]3CC[C@@]21C | 1620 nM | 5150 nM
23 | C[n+]1cc2c3c(ccc2c2ccc4cc5c(cc4c21)OCO5)OCO3 | 1050 nM | 2480 nM
24 | CC1=CC(=O)CC(C)(C)[C@@]1(O)/C=C/C(C)=C\C(=O)O | 116 nM | 308 nM
25 | O=C(Nc1ccc(OC(F)(F)F)cc1)c1sccc1NCc1ccnc2ccccc12 | 1520 nM | 19800 nM
26 | CC[C@H](C)[C@H](NC(=O)c1cnccn1)C(=O)N(C)[C@H](C[C@@H](OC(C)=O)c1nc(C(=O)N[C@@H](Cc2ccccc2)C[C@H](C)C(=O)OC)cs1)C(C)C | 595 nM | 29800 nM
27 | CCN(CCCCCCCCCCN1CC(=O)N(CCCCCCCCCCN(CC)Cc2ccccc2OC)CC1=O)Cc1ccccc1OC | 1110 nM | 2500 nM
28 | CCN1CCN(Cc2ccc(NC(=O)Nc3ccc(-n4ccc5c(NC(=O)c6ccccc6)nccc54)cc3)cc2C(F)(F)F)CC1 | 1770 nM | 3300 nM
29 | NS(=O)(=O)c1ccc(N2Cc3cc(Cl)ccc3OC3=C2C(=O)N(CC2CCCCC2)C3=O)cc1 | 962 nM | 2730 nM
30 | COC(=O)c1ccc2c(c1)C(NC(C)=O)CCc1cc(OC)c(OC)c(OC)c1-2 (stereo not given) | 18.4 nM | > 100000 nM
31 | Fc1cccc(COc2ccc(Nc3ncnc4sc(-c5ccco5)cc34)cc2Cl)c1 | > 17700 nM | > 25000 nM
32 | COc1ccc(C(=O)N2c3ccccc3Sc3ccccc32)c(F)c1 | 413 nM | > 100000 nM
33 | C#Cc1nc(/C=C/C(=O)NO)cs1 | 1110 nM | 4160 nM
34 | Cc1cc(N(CCNc2ccnc3cc(Cl)ccc23)Cc2ccc3c(c2)OCO3)nc(N2CCN(C)CC2)n1 | 1870 nM | 4020 nM
35 | COc1cc(/C=C2\CN(C)CC3=C2Nc2nc(SC)[nH]c(=O)c2C3c2cc(OC)c(OC)c(OC)c2)cc(OC)c1OC (stereo not given) | 2200 nM | 10600 nM
